From article PMC6792352, “Limited Chemical Structural Diversity Found to Modulate Thyroid Hormone Receptor in the Tox21 Chemical Library” (Environmental Health Perspectives, 2019) come the findings set out here.

Counter-ions that a name gives are not always drawn.

The first data set is described as follows: in vitro. To be noted: rat, gh3-tre-luc cells, AC50 (uM) modified / 1000.
`ClC(Cl)Cl` [Chloroform] came in with a CC50 at 24 h greater than 90 µM.

Take `O=C(/C=C/c1ccc(O)c(O)c1)O[C@@H]1C[C@](O)(C(=O)O)C[C@@H](O)[C@H]1O` [Chlorogenic acid]: the CC50 at 24 h is greater than 90 µM.

In turn, `CCN(CC)CCOC(=O)c1ccc(N)cc1Cl` [Chloroprocaine hydrochloride] gave a CC50 at 24 h greater than 50 µM.

Take `CN(C)CCN(Cc1ccc(Cl)cc1)c1ccccn1` [Chloropyramine hydrochloride]: the CC50 at 24 h was 10.2 µM.

With `NS(=O)(=O)c1cc2c(cc1Cl)N=CNS2(=O)=O` [Chlorothiazide], the CC50 at 24 h was greater than 90 µM.

As to `C[Si](C)(C)Cl` [Chlorotrimethylsilane], the CC50 at 24 h was greater than 90 µM.

Take `Oc1c(Cl)cc(Cl)c2cccnc12` [Chloroxine]: the midpoint of cytotoxicity, the CC50 at 24 h, lay at 5.91 µM.

Turning to `CN(C)C(=O)Nc1ccc(Oc2ccc(Cl)cc2)cc1` [Chloroxuron], the CC50 at 24 h is greater than 90 µM.

As for `NC(=O)OCC(O)COc1ccc(Cl)cc1` (centres unmarked) [Chlorphenesin carbamate], the CC50 at 24 h was greater than 20 µM.

As to `OCC(O)COc1ccc(Cl)cc1` (centres unmarked) [Chlorphenesin], the half-maximal cytotoxic concentration (CC50) at 24 h is greater than 50 µM.

Regarding `CN(C)CCCN1c2ccccc2Sc2ccc(Cl)cc21` [Chlorpromazine hydrochloride], the CC50 at 24 h worked out at 10.6 µM.

Consider `CCCNC(=O)NS(=O)(=O)c1ccc(Cl)cc1` [Chlorpropamide], for which the CC50 at 24 h is greater than 90 µM.

`CC(C)OC(=O)Nc1cccc(Cl)c1` [Chlorpropham] showed a CC50 at 24 h greater than 90 µM.

On to `CN(C)CC/C=C1/c2ccccc2Sc2ccc(Cl)cc21` [Chlorprothixene], for which the CC50 at 24 h came to 11 µM.

`COc1nc(C)nc(NC(=O)NS(=O)(=O)c2ccccc2Cl)n1` [Chlorsulfuron] registered a half-maximal cytotoxic concentration (CC50) at 24 h greater than 90 µM.

The compound `COC(=O)c1c(Cl)c(Cl)c(C(=O)OC)c(Cl)c1Cl` [Chlorthal-dimethyl] displayed a CC50 at 24 h greater than 90 µM.

`NS(=O)(=O)c1cc(C2(O)NC(=O)c3ccccc32)ccc1Cl` (centres unmarked) [Chlorthalidone]: the CC50 at 24 h was greater than 20 µM.

In turn, `NC(=S)c1c(Cl)cccc1Cl` [Chlorthiamid] yielded a CC50 at 24 h greater than 90 µM.

`CC(C)CCC[C@@H](C)[C@H]1CC[C@H]2[C@@H]3CC=C4C[C@@H](O)CC[C@]4(C)[C@H]3CC[C@]12C` [Cholesterol] showed a CC50 at 24 h greater than 50 µM.

In turn, `C[C@H](CCC(=O)O)[C@H]1CC[C@H]2[C@@H]3[C@H](O)C[C@@H]4C[C@H](O)CC[C@]4(C)[C@H]3C[C@H](O)[C@]12C` [Cholic acid piperazine (1:1)] came in with a CC50 at 24 h greater than 50 µM.

`C[N+](C)(C)CCO` [Cholin acetate] returned a CC50 at 24 h greater than 50 µM.

`O=C(O)c1cc(=O)c2ccccc2o1` [Chromocarb] returned a CC50 at 24 h greater than 50 µM.

Regarding `CCOC(=O)COc1ccc2c(C)c(CCN(CC)CC)c(=O)oc2c1` [Chromonar hydrochloride], the CC50 at 24 h was greater than 50 µM.

`Cc1cc(O)c2c(O)c3c(O)cccc3cc2c1` [Chrysarobin] gave a CC50 at 24 h greater than 50 µM.

Consider `c1ccc2c(c1)ccc1c3ccccc3ccc21` [Chrysene], for which the CC50 at 24 h is greater than 40 µM.

Consider `O=c1cc(-c2ccccc2)oc2cc(O)cc(O)c12` [Chrysin], for which the midpoint of cytotoxicity, the CC50 at 24 h, lay at 62.4 µM.

The compound `Cc1cc(O)c2c(c1)C(=O)c1cccc(O)c1C2=O` [Chrysophanic acid] returned a CC50 at 24 h greater than 50 µM.

`CC(C)C(=O)OCC(=O)[C@@]12O[C@H](C3CCCCC3)O[C@@H]1C[C@H]1[C@@H]3CCC4=CC(=O)C=C[C@]4(C)[C@H]3[C@@H](O)C[C@@]12C` [Ciclesonide] showed a CC50 at 24 h of 17.7 µM.

Regarding `Cc1cc(C2CCCCC2)n(O)c(=O)c1` [Ciclopirox olamine], half-maximal cytotoxicity (CC50 at 24 h) was put at 1.9 µM.

Regarding `Nc1ccn(C[C@@H](CO)OCP(=O)(O)O)c(=O)n1` [Cidofovir], the CC50 at 24 h was greater than 50 µM.

With `c1ccc(C2(c3ccccc3)CC2C2=NCCN2)cc1` (centres unmarked) [Cifenline succinate], the CC50 at 24 h was greater than 50 µM.

`CC1(COc2ccc(CC3SC(=O)NC3=O)cc2)CCCCC1` (centres unmarked) [Ciglitizone]: the CC50 at 24 h stood at 26.4 µM.

Compound `CC1(C)C[C@@H]1C(=O)N/C(=C\CCCCSC[C@H](N)C(=O)O)C(=O)O` [Cilastatin sodium] came in with a CC50 at 24 h greater than 50 µM.

For `CCOC(=O)[C@H](CCc1ccccc1)N[C@H]1CCCN2CCC[C@@H](C(=O)O)N2C1=O` [Cilazapril], the CC50 at 24 h was greater than 50 µM.

With `COCCOC(=O)C1=C(C)NC(C)=C(C(=O)OC/C=C/c2ccccc2)C1c1cccc([N+](=O)[O-])c1` (centres unmarked) [Cilnidipine], half-maximal cytotoxicity (CC50 at 24 h) was put at 12.4 µM.

`COc1ccc([C@]2(C#N)CC[C@@H](C(=O)O)CC2)cc1OC1CCCC1` [Cilomilast] showed a CC50 at 24 h greater than 50 µM.

`CN(C(=O)CCCOc1ccc2[nH]c(=O)ccc2c1)C1CCCCC1` [Cilostamide]: the CC50 at 24 h is greater than 50 µM.

`O=C1CCc2cc(OCCCCc3nnnn3C3CCCCC3)ccc2N1` [Cilostazol] came in with a CC50 at 24 h greater than 50 µM.

Compound `CC(C)NCC(O)c1ccc(N)c(C#N)c1` (centres unmarked) [Cimaterol] showed a cytotoxic concentration (CC50) at 24 h greater than 50 µM.

Turning to `CN/C(=N/CCSCc1nc[nH]c1C)NC#N` [Cimetidine], the CC50 at 24 h was greater than 90 µM.

`C[C@@H](NCCCc1cccc(C(F)(F)F)c1)c1cccc2ccccc12` [Cinacalcet hydrochloride] returned a CC50 at 24 h of 5.95 µM.

Regarding `CCC(CC)(CC(=O)Nc1cccc(/C=C/c2nc(C3CCC3)cs2)c1)C(=O)O` [Cinalukast], the CC50 at 24 h was greater than 50 µM.

In the case of `CN(C)CCCSc1ccccc1NC(=O)/C=C/c1ccccc1` [Cinanserin], the CC50 at 24 h was found to be 22.6 µM.

Compound `C=C[C@H]1C[N@@]2CC[C@H]1C[C@@H]2[C@@H](O)c1ccnc2ccccc12` [Cinchonine] had a half-maximal cytotoxic concentration (CC50) at 24 h greater than 50 µM.

`O=C(O)c1cc(-c2ccccc2)nc2ccccc12` [Cinchophen] yielded a CC50 at 24 h greater than 50 µM.

With `COc1cc(/C=C/C(=O)N2CCN(CC(=O)N3CCCC3)CC2)cc(OC)c1OC` [Cinepazide maleate], the CC50 at 24 h is greater than 50 µM.

In turn, `O=C(/C=C/c1cccc(F)c1)NC1CC1` [Cinflumide] had a CC50 at 24 h greater than 50 µM.

Take `CCn1nc(C(=O)O)c(=O)c2cc3c(cc21)OCO3` [Cinoxacin]: the CC50 at 24 h is greater than 20 µM.

Regarding `CCNC(=O)/C=C/c1cccc(Br)c1` [Cinromide], the 50% cytotoxic concentration (CC50) at 24 h was greater than 50 µM.

`CC(C)(Oc1ccc(C2CC2(Cl)Cl)cc1)C(=O)O` (centres unmarked) [Ciprofibrate]: the CC50 at 24 h was greater than 90 µM.

Take `c1ccc(C2CC2)c(OCC2=NCCN2)c1` [Cirazoline]: the half-maximal cytotoxic concentration (CC50) at 24 h was greater than 50 µM.

Turning to `COc1cc(N)c(Cl)cc1C(=O)NC1CCN(CCCOc2ccc(F)cc2)CC1OC` (centres unmarked) [Cisapride], the CC50 at 24 h worked out at 13 µM.

For the compound `C[N+](C)(C)CCOP(=O)(O)OP(=O)([O-])OC[C@H]1O[C@@H](n2ccc(N)nc2=O)[C@H](O)[C@@H]1O` [Citicoline sodium], the CC50 at 24 h is greater than 50 µM.

As to `CC(C)=CCC/C(C)=C/C=N/O` [Citral oxime], the CC50 at 24 h was greater than 90 µM.

Consider `CC(C)=CCCC(C)=CC#N` [Citralva], for which the CC50 at 24 h is greater than 90 µM.

Compound `CC(C)=CCCC(C)CC=O` (centres unmarked) [Citronellal] yielded a CC50 at 24 h greater than 90 µM.

`CC(C)=CCCC(C)CC(=O)O` (centres unmarked) [Citronellic acid]: the CC50 at 24 h is greater than 90 µM.

`CC(C)=CCCC(C)CCO` (centres unmarked) [Citronellol]: the CC50 at 24 h is greater than 100 µM.

`CCCC(=O)OCCC(C)CCC=C(C)C` (centres unmarked) [Citronellyl butyrate] registered a CC50 at 24 h greater than 90 µM.

`CCC(=O)OCCC(C)CCC=C(C)C` (centres unmarked) [Citronellyl propionate] returned a CC50 at 24 h greater than 90 µM.

For the compound `CC[C@H]1OC(=O)[C@H](C)[C@@H](O[C@H]2C[C@@](C)(OC)[C@@H](O)[C@H](C)O2)[C@H](C)[C@@H](O[C@@H]2O[C@H](C)C[C@H](N(C)C)[C@H]2O)[C@](C)(OC)C[C@@H](C)C(=O)[C@H](C)[C@@H](O)[C@]1(C)O` [Clarithromycin], the CC50 at 24 h was greater than 90 µM.

Staying with this data set, now noted: rat, gh3-tre-luc cells, AC50 (uM) modified / 1000, Tox21_110001=Tox21_111804; viability, 1 nM T3 present, 24 h.
In turn, `CC(C)(N)Cc1ccc(Cl)cc1` [Chlorphentermine hydrochloride] registered a CC50 at 24 h greater than 50 µM.

Still in this data set, the particulars now being: rat, gh3-tre-luc cells, AC50 (uM) modified / 1000, Tox21_110001=Tox21_112065; viability, 1 nM T3 present, 24 h.
The compound `CO[C@@H]1[C@H](O)C[C@@H](O[C@@H]2C[C@H](Oc3cc4cc5c(c(O)c4c(O)c3C)C(=O)[C@@H](O[C@H]3C[C@@H](O[C@H]4C[C@@H](O[C@H]6C[C@](C)(O)[C@@H](OC(C)=O)[C@H](C)O6)[C@H](O)[C@@H](C)O4)[C@H](O)[C@@H](C)O3)[C@H]([C@H](OC)C(=O)[C@@H](O)[C@@H](C)O)C5)O[C@H](C)[C@@H]2OC(C)=O)O[C@@H]1C` [Chromomycin A3] yielded a CC50 at 24 h of 0.366 µM.

Staying with this data set, now noted: rat, gh3-tre-luc cells, AC50 (uM) modified / 1000, Tox21_110001=Tox21_201575; viability, 1 nM T3 present, 24 h.
The compound `COCCl` [Chloromethyl methyl ether] displayed a CC50 at 24 h greater than 90 µM.

The data set is the same for the next values; noted with them: rat, gh3-tre-luc cells, AC50 (uM) modified / 1000, Tox21_110001=Tox21_202383; viability, 1 nM T3 present, 24 h.
Compound `CCOP(=S)(OCC)Oc1nc(Cl)c(Cl)cc1Cl` [Chlorpyrifos] displayed a CC50 at 24 h of 53.7 µM.

Still in this data set, the particulars now being: rat, gh3-tre-luc cells, AC50 (uM) modified / 1000, Tox21_110001=Tox21_300148; viability, 1 nM T3 present, 24 h.
`CCOP(=S)(OCC)Oc1nc(Cl)c(Cl)cc1Cl` [Chlorpyrifos]: the half-maximal cytotoxic concentration (CC50) at 24 h is 81.6 µM.

The same data set, now with this note: rat, gh3-tre-luc cells, AC50 (uM) modified / 1000, Tox21_110001=Tox21_300700; viability, 1 nM T3 present, 24 h.
In the case of `COP(=S)(OC)Oc1nc(Cl)c(Cl)cc1Cl` [Chlorpyrifos-methyl], the CC50 at 24 h was greater than 90 µM.

The data set is the same for the next values; noted with them: rat, gh3-tre-luc cells, AC50 (uM) modified / 1000, Tox21_110001=Tox21_300739; viability, 1 nM T3 present, 24 h.
As to `COc1cc(Cl)c(OC)cc1Cl` [Chloroneb], the CC50 at 24 h is greater than 90 µM.

Still in this data set, the particulars now being: rat, gh3-tre-luc cells, AC50 (uM) modified / 1000, Tox21_110001=Tox21_301565; viability, 1 nM T3 present, 24 h.
`O=C1c2ccccc2C(=O)C1C(=O)C(c1ccccc1)c1ccc(Cl)cc1` (centres unmarked) [Chlorophacinone]: the CC50 at 24 h was 42.3 µM.

The same data set, now with this note: rat, gh3-tre-luc cells, AC50 (uM) modified / 1000, Tox21_110001=Tox21_301914; viability, 1 nM T3 present, 24 h.
In turn, `CC(C)OC(=O)C(O)(c1ccc(Cl)cc1)c1ccc(Cl)cc1` [Chloropropylate] came in with a CC50 at 24 h of 74.2 µM.

The same data set, now with this note: rat, gh3-tre-luc cells, AC50 (uM) modified / 1000, Tox21_110001=Tox21_302939; viability, 1 nM T3 present, 24 h.
For the compound `COCCl` [Chloromethyl methyl ether], the CC50 at 24 h is greater than 30 µM.

As a reminder, the CC50 is the concentration that lowers cell viability or growth by half. A higher CC50 goes with lower toxicity to the cells.
